Tests used:
[1] = target: Tyrosine-protein kinase Lyn (Homo sapiens, UniProt P07948); experiment: Selectivity interaction (KinomeScan (DiscoverX)) EUB0001079a LYN; details: at 1 µM
[2] = target: T1, Mitogen-activated protein kinase kinase kinase 5 (Homo sapiens) (UniProt Q99683); experiment: Selectivity interaction (Kinase panel (DSF assay)) EUB0001558a MAP3K5
T1 sequence (whole entry): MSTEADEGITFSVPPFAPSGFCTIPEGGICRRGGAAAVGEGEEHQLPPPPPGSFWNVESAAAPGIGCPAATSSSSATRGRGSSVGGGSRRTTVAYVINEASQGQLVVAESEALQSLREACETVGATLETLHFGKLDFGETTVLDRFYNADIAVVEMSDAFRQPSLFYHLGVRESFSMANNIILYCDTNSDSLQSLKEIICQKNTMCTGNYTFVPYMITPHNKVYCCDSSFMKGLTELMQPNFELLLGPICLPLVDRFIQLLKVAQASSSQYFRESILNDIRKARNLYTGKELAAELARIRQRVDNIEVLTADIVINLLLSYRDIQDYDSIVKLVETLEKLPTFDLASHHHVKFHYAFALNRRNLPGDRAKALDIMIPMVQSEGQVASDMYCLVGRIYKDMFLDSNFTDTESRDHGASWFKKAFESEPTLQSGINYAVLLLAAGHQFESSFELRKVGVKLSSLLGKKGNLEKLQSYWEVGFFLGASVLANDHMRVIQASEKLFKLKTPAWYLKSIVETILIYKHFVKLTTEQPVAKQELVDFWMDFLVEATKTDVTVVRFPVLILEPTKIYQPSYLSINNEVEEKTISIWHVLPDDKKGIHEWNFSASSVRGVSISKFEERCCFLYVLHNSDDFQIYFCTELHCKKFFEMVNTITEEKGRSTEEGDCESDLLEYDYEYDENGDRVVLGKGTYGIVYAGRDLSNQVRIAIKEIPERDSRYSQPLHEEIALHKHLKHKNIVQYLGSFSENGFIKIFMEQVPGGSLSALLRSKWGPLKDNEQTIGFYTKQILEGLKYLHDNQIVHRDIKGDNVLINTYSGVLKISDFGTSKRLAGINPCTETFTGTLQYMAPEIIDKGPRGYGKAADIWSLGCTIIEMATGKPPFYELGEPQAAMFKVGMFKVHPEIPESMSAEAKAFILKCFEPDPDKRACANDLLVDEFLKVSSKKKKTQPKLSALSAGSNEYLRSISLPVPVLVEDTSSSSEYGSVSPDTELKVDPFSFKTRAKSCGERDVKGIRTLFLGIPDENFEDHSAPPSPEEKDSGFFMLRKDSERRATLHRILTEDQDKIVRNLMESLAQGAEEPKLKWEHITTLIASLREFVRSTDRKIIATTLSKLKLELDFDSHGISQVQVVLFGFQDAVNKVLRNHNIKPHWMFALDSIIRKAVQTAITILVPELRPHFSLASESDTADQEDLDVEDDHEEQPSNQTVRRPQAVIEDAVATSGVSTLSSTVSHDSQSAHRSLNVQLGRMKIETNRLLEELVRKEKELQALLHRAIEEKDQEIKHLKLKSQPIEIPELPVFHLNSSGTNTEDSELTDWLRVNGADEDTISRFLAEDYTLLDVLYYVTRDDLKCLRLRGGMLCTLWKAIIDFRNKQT

[3] = target: STE20-like serine/threonine-protein kinase (Homo sapiens, UniProt Q9H2G2); experiment: Selectivity interaction (ActivX KiNativ screen (kinase selectivity in THP-1 cell lysates)) EUB0000639a SLK; assay type: subcellular; details: lysate, at 0.04 µM
[4] = target: T2, Ephrin type-B receptor 1 (Homo sapiens) (UniProt P54762); experiment: Selectivity interaction (KinomeScan (DiscoverX)) EUB0000092b EPHB1; details: at 10 µM
T2 sequence (whole entry): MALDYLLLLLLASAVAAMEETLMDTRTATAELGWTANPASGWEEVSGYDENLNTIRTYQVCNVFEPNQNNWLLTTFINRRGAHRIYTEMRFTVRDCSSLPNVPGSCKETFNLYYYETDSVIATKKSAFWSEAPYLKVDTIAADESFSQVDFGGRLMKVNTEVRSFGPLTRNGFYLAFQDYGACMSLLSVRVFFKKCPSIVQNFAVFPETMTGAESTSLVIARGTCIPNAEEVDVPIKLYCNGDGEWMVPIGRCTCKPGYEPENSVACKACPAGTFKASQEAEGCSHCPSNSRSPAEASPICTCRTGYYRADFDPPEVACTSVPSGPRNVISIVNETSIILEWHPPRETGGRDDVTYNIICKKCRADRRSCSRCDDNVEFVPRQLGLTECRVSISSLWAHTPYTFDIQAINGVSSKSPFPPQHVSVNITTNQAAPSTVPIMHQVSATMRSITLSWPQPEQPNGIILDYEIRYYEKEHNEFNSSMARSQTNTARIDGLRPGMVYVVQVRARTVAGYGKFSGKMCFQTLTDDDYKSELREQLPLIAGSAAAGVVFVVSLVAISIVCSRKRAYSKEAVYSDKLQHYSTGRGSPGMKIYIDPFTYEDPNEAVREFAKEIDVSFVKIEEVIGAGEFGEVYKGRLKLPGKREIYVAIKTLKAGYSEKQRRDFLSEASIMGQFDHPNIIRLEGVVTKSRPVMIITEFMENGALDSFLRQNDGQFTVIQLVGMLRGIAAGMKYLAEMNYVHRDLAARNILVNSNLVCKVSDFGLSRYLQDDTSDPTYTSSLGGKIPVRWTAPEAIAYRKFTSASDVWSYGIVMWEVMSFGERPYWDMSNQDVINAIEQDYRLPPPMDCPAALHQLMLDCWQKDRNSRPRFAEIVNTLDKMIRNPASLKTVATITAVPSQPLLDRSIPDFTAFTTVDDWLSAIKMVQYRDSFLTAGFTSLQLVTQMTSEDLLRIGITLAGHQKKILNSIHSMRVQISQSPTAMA

[5] = system: Serine/threonine-protein kinase B-raf (Homo sapiens), P15056 [V600E]; details: at 10 µM
[6] = target: T3, Uncharacterized serine/threonine-protein kinase SBK3 (Homo sapiens) (UniProt P0C264); experiment: Selectivity interaction (KinomeScan (DiscoverX)) EUB0000607a SBK3; details: at 10 µM
T3 sequence (whole entry): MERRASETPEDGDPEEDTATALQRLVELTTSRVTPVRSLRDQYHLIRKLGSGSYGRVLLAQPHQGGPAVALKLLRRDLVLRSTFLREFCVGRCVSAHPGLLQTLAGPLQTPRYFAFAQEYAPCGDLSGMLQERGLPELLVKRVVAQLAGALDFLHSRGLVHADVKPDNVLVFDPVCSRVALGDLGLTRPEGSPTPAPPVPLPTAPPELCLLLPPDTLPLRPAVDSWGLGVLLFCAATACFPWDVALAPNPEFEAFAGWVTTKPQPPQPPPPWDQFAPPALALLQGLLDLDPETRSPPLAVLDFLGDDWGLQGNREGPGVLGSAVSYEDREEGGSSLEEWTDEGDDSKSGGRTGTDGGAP

[7] = target: SRSF protein kinase 2 (Homo sapiens) (UniProt P78362); experiment: Selectivity interaction (ProQinase) EUB0000171b SRPK2
Chain of SRSF protein kinase 2 (Homo sapiens) (P78362 whole entry, looked up): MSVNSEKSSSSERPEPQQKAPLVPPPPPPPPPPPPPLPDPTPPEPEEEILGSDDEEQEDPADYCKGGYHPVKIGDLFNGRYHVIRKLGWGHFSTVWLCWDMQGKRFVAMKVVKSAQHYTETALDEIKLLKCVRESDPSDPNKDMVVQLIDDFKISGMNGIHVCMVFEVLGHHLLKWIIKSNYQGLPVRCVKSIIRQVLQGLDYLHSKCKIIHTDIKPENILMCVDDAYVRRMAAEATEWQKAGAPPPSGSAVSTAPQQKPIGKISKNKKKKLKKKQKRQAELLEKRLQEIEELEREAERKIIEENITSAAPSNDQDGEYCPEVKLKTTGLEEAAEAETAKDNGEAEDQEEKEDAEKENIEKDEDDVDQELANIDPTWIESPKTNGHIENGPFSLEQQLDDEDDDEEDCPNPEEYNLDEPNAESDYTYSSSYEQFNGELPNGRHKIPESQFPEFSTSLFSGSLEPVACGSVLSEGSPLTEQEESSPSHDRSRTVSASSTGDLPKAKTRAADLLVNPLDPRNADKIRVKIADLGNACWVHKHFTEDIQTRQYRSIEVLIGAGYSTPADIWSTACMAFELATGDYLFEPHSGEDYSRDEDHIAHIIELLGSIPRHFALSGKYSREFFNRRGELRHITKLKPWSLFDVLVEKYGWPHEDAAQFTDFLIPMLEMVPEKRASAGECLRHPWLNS

Chain of Serine/threonine-protein kinase B-raf (Homo sapiens), P15056 [V600E] (P15056 whole entry V600E): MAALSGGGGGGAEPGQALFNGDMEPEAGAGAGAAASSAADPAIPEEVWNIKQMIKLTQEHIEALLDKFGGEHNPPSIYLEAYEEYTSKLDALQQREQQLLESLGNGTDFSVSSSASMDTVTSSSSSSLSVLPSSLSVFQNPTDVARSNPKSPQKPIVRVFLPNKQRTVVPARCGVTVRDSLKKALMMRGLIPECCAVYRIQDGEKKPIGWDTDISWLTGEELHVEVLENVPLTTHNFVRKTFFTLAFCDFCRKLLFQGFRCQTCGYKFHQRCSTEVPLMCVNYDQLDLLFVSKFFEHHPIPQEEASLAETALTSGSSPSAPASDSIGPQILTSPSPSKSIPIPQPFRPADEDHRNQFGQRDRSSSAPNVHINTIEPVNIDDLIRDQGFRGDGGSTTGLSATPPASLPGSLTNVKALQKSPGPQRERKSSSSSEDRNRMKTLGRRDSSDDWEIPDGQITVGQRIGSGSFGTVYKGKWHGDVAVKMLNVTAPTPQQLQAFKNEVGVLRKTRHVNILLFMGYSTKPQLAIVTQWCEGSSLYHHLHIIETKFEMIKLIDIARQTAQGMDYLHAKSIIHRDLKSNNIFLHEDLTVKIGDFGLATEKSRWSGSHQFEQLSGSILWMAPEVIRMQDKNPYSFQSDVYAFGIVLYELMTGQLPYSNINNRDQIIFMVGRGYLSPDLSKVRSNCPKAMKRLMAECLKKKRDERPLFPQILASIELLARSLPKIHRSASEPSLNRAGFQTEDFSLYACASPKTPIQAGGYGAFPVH
Chain of STE20-like serine/threonine-protein kinase (Q9H2G2 whole entry, looked up): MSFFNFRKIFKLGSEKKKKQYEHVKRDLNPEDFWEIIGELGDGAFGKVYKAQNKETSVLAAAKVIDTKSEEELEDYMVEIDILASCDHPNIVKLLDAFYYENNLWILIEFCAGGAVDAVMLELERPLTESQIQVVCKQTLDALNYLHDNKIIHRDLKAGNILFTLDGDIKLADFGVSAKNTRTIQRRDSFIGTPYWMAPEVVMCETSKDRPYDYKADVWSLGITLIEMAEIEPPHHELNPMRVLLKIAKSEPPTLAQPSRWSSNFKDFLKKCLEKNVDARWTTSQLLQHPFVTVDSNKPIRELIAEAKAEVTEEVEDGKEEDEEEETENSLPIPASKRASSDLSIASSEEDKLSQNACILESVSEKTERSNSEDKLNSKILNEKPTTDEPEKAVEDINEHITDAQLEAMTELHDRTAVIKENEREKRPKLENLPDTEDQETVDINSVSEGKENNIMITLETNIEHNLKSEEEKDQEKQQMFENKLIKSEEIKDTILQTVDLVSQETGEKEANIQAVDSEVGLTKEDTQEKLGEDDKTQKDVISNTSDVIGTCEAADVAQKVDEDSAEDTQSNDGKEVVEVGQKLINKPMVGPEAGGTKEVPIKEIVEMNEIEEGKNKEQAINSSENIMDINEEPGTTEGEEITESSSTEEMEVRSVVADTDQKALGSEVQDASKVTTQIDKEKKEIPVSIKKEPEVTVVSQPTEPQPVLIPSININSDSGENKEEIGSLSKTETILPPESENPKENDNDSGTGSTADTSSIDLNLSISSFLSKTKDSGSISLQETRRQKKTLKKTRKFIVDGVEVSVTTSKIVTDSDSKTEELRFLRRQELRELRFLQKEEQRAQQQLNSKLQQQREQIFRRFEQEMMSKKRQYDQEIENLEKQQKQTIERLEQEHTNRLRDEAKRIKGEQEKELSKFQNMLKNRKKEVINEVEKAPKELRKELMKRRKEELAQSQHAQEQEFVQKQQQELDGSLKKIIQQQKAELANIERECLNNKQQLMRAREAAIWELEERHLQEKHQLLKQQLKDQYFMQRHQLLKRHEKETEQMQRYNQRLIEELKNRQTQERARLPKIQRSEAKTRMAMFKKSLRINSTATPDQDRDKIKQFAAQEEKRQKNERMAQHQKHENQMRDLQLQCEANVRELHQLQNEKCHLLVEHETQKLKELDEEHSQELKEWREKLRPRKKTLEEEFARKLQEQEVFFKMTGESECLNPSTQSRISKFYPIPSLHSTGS
Chain of Tyrosine-protein kinase Lyn (P07948 2-512 limits assumed): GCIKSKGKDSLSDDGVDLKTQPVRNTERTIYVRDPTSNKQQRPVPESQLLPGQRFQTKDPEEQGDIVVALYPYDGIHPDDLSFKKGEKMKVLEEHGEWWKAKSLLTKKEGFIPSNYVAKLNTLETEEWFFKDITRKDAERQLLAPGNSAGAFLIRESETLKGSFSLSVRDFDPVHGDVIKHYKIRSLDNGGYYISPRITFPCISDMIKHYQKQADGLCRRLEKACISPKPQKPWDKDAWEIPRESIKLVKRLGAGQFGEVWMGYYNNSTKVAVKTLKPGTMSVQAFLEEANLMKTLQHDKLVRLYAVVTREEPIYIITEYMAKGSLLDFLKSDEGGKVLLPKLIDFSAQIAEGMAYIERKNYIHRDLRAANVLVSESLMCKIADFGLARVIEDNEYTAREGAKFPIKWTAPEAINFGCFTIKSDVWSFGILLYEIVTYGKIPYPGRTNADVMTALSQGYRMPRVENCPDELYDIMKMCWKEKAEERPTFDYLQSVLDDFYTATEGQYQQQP

## Nc1cnc(N2CCc3cc(S(=O)(=O)Nc4c(F)cc(Cl)cc4F)cc(N4CCCC4=O)c32)nc1 [TP-020n]
[1]
  % of control: 88%

## CC(C)(O)[C@H](F)CN1Cc2cc(NC(=O)c3cnn4cccnc34)c(N3CCOCC3)cc2C1=O
[2]
  dTM: 0.5 K

## CC[C@@H]1[C@H](F)C(=O)N[C@@H]1COc1nccc2cc(C(N)=O)c(OC)cc12 [ZIMLOVISERTIB]
[3]
  % of inhibition: -0.4%

## CCC(=O)N1CCN(c2ccc(-n3c(=O)ccc4cnc5ccc(-c6cnc7ccccc7c6)cc5c43)cc2C(F)(F)F)CC1
[4]
  % of control: 100%

## Cc1cc([C@@H](C)Nc2ccccc2C(=O)O)c2nc(N3CCOCC3)cc(=O)n2c1 [AZD-6482]
[5]
  % of control: 92%

## CNC(=O)Nc1ccc(-c2nc(N3CC4CCC(C3)O4)c3cnn(C4CCC5(CC4)OCCO5)c3n2)cc1
[6]
  % of control: 96%

## C=CC(=O)Nc1cccc(C(=O)Nc2ccc(Nc3cc(-c4[nH]c(SC)nc4C)ccn3)cc2)c1
[7]; at 1 µM
  % of control: 82%
[7]; at 5 µM
  % of control: 75%
